Data on 1 molecule can be found in article PMC5486975 (European journal of medicinal chemistry, 2017).

For test [1], the system named is PC-3 cells. As to conditions: cited from earlier work.
For test [2], the system named is LNCaP human androgen-sensitive prostate cancer cell line. Kind of test: WST-1 cell proliferation assay, LNCaP. It is filed as cell-based.
Test [3] concerns PWR-1E non-neoplastic human prostate epithelial cells. In words: WST-1 cell proliferation assay, PWR-1E. Type of test: cell-based.
Test [4] deals with PC-3 human androgen-insensitive prostate cancer cell line. Kind of test: WST-1 cell proliferation assay, PC-3. Type of test: cell-based.
Test [5] relates to DU145 human androgen-insensitive prostate cancer cell line. In words: WST-1 cell proliferation assay, DU145. It is filed as cell-based.
Setting [6] is: fold potency relative to curcumin.

With `COc1cc(/C=C/C(=O)CC(=O)/C=C/c2ccc(O)c(OC)c2)ccc1O` [Curcumin], the “effect on PC-3 cell cycle progression” value in test [1] is “arresting the G1/S phase”. The IC50 in test [2] (Homo sapiens, LNCaP, 72 h, read-out: IC50 (μM) LNCaP) is 13.6 ± 2.69 µM; in test [3] (Homo sapiens, PWR-1E, 72 h, read-out: IC50 (μM) PWR-1E), 8.14 to 9.54 µM; in test [4] (Homo sapiens, 72 h, read-out: IC50 (μM) PC-3) it was 25.4 ± 2.15 µM; in test [5] (Homo sapiens, DU-145, 72 h, read-out: IC50 (μM) DU145) it was 26.2 ± 0.65 µM. For the same molecule, the “IC50(curcumin)/IC50(trienone) LNCaP” value in test [2] (setting [6]) came to 1. Further, the “IC50(curcumin)/IC50(trienone) PWR-1E” value in test [3] (setting [6]) is reported as 1. The “IC50(curcumin)/IC50(trienone) PC-3” value in test [4] (setting [6]) was 1. Besides, the “IC50(curcumin)/IC50(trienone) DU145” value in test [5] (setting [6]) is 1.
